Data from patent US11731976B2, “3-(ethoxydifluoromethyl)-6-(5-fluoro-6-(2,2,2-trifluoroethoxy)pyridin-3-yl)-[1,2,4]triazolo[4,3-a]pyridine as an ion channel modulator” (Praxis Precision Medicines, Inc., priority 2018, dated 2023).

Target: T1, human NaV1.6 (hNaV1.6) (Homo sapiens, UniProt Q9UQD0)
T1 construct: expressed in transfected cells; host or cells: HEK-293
Assay: Modulation of late sodium current (INaL), PatchXpress electrophysiology, HEK-293 cells expressing hNaV1.6
Type: cell-based
Conditions: HEK293, late current evoked by 300 nM ATX-II, read-out: NaV 1.6 Assay Data: percent inhibition of INaL at hNaV1.6
Experimental: Functional characterization of exemplary compounds to modulate INaL expressed by the NaV1.6 voltage-gated sodium channel was accomplished using the PatchXpress™ high throughput electrophysiology platform (Molecular Devices, Sunnyvale, Calif.). HEK-293 cells expressing recombinant, human NaV1.6 (hNaV1.6) were grown in DMEM/high-glucose Dulbecco's modified, 10% FBS, 2 mM sodium pyruvate, 10 mM HEPES and 400 μg/mL G418. Cells were grown to 50%-80% confluency prior to harvesting. Trypsinized cells were washed, allowed to recover for 1 hour and then resuspended in extracellular recording solution at a concentration of 1×10^6 cells/ml. The onboard liquid handling facility of the PatchXpress was used for dispensing cells and applying test compounds. NaV late currents were evoked by the application of 300 nM ATX-II. INaL was evoked by depolarizing pulses to 0 mV for 200 ms from a non-inactivating holding potential (e.g., −120 mV) at a frequency of 0.1 Hz. INaL amplitude and stability were determined by analyzing the mean current amplitude over the final 20 ms of the test pulse. Following steady state block with exemplary compounds (e.g., as described herein), a Na+ free solution containing an impermeant cation (e.g., Choline or NDMG) was added to confirm the identify of the sodium current. Percent steady-state inhibition of INaL was calculated as: [(INaL_compound)/(INaL_control)]*100, where INaL_compound and INaL_control represent INaL recorded in the presence or absence of compound, respectively.

T1 sequence (Q9UQD0 whole entry): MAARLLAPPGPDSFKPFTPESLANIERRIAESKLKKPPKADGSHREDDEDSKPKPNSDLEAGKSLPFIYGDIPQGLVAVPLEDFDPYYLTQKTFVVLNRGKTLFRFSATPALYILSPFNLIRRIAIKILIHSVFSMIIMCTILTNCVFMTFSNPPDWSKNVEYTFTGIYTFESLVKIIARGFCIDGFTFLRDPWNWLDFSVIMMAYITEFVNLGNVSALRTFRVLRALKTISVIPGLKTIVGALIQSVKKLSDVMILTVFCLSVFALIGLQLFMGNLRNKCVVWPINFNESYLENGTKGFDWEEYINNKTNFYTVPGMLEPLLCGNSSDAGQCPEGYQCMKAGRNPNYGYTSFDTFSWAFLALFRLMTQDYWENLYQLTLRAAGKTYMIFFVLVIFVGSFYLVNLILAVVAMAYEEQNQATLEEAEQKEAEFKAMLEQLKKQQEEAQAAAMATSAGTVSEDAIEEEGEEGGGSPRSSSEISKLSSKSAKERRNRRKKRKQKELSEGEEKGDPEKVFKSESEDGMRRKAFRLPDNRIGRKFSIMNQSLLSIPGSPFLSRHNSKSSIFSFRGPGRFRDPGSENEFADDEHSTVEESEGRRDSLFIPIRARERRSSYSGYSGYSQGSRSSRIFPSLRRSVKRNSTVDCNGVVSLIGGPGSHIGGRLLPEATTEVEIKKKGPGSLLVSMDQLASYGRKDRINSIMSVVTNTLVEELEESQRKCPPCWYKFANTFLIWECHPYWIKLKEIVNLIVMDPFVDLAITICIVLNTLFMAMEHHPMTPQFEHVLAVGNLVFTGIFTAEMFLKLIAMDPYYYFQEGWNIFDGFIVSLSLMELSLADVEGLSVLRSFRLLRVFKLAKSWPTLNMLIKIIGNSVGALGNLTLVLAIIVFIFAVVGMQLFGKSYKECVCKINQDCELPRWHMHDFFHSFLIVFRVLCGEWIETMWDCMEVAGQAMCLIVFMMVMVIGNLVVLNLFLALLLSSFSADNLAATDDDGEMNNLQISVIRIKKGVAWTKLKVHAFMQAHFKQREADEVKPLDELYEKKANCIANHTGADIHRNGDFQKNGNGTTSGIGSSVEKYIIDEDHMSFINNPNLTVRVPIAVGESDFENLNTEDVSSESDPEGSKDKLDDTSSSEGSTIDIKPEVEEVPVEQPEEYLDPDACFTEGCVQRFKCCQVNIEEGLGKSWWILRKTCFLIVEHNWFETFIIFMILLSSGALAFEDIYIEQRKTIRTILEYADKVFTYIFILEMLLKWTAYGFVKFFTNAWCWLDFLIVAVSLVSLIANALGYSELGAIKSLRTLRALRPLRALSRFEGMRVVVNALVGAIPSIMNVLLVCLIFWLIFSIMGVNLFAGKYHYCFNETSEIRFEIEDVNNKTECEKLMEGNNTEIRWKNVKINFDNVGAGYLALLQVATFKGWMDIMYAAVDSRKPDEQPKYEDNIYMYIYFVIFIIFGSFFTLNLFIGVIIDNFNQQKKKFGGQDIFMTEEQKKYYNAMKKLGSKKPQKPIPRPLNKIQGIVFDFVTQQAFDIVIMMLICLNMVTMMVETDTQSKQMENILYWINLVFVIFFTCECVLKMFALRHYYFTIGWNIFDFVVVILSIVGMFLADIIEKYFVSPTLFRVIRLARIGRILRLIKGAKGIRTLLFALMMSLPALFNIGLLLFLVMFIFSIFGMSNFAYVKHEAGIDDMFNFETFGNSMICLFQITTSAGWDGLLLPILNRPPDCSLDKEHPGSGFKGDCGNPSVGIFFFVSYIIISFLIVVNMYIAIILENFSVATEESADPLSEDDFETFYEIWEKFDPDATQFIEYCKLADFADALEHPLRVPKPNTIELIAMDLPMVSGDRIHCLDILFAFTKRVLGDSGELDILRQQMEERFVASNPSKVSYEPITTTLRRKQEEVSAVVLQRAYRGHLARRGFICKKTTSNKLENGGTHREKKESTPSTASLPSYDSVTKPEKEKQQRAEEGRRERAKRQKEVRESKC

| Structure (SMILES) | inhibition at 1 µM [%] |
| --- | --- |
| COC(F)(F)c1nnc2cnc(-c3ccc(OC4(C(F)(F)F)CCC4)nc3)cn12 [Compound 57] | > 70 |
| COC(F)(F)c1nnc2cc(C)c(-c3cnc(O[C@@H](C)C(F)(F)F)c(F)c3)nn12 [Compound 68, 3-[difluoro(methoxy)methyl]-6-[5-fluoro-6-[(1S)-2,2,2-trifluoro-1-methyl-ethoxy]-3-pyridyl]-7-methyl-[1,2,4]triazolo[4,3-b]pyridazine] | > 70 |
| CC(C)COC(F)(F)c1nnc2ccc(-c3cnc(O[C@@H](C)C(F)(F)F)c(F)c3)cn12 [Compound 22, 3-[difluoro(isobutoxy)methyl]-6-[5-fluoro-6-[(1S)-2,2,2-trifluoro-1-methyl-ethoxy]-3-pyridyl]-[1,2,4]triazolo[4,3-a]pyridine] | > 70 |
| COCc1nnc2cc(C)c(-c3cnc(O[C@H](C)C(F)(F)F)c(F)c3)nn12 [Compound 72, 6-[5-fluoro-6-[(1R)-2,2,2-trifluoro-1-methyl-ethoxy]-3-pyridyl]-3-(methoxymethyl)-7-methyl-[1,2,4]triazolo[4,3-b]pyridazine] | < 30 |
| CC(C)COC(F)(F)c1nnc2ccc(-c3cnc(O[C@@H](C)C(F)(F)F)c(F)c3)nn12 [Compound 47, 3-[difluoro(isobutoxy)methyl]-6-[5-fluoro-6-[(1S)-2,2,2-trifluoro-1-methyl-ethoxy]-3-pyridyl]-[1,2,4]triazolo[4,3-b]pyridazine] | > 70 |
| CC(C)COC(F)(F)c1nnc2ccc(-c3cnc(O[C@H](C)C(F)(F)F)c(F)c3)cn12 [Compound 23, 3-[difluoro(isobutoxy)methyl]-6-[5-fluoro-6-[(1R)-2,2,2-trifluoro-1-methyl-ethoxy]-3-pyridyl]-[1,2,4]triazolo[4,3-a]pyridine] | > 70 |
| COC(F)(F)c1nnc2ccc(-c3cnc(OC4CC(F)(F)C4)c(F)c3)cn12 [Compound 84, 3-(difluoro(methoxy)methyl)-6-(6-(3,3-difluorocyclobutoxy)-5-fluoropyridin-3-yl)-[1,2,4]triazolo[4,3-a]pyridine] | > 70 |
| CC(C)COC(F)(F)c1nnc2ccc(-c3cnc(O[C@H](C)C(F)(F)F)c(F)c3)nn12 [Compound 49, 3-[difluoro(isobutoxy)methyl]-6-[5-fluoro-6-[(1R)-2,2,2-trifluoro-1-methyl-ethoxy]-3-pyridyl]-[1,2,4]triazolo[4,3-b]pyridazine] | > 70 |
| COCc1nnc2ccc(-c3cnc(OCC(F)(F)F)c(F)c3)cn12 [Compound 29, 6-[5-fluoro-6-(2,2,2-trifluoroethoxy)-3-pyridyl]-3-(methoxymethyl)-[1,2,4]triazolo[4,3-a]pyridine] | < 30 |
| FC(F)(F)COc1ccc(-c2cn3c(C(F)(F)OC4CC4)nnc3cn2)cn1 [Compound 74, 3-(cyclopropoxydifluoromethyl)-6-(6-(2,2,2-trifluoroethoxy)pyridin-3-yl)-[1,2,4]triazolo[4,3-a]pyrazine] | > 70 |
| CCOC(F)(F)c1nnc2cnc(-c3cnc(OC4CC(F)(F)C4)c(F)c3)cn12 [Compound 77, 6-(6-(3,3-difluorocyclobutoxy)-5-fluoropyridin-3-yl)-3-(ethoxydifluoromethyl)-[1,2,4]triazolo[4,3-a]pyrazine] | > 70 |

Further lines, results first:

| inhibition at 1 µM [%] | Structure (SMILES) |
| --- | --- |
| > 70 | Fc1cc(-c2ccc3nnc(C(F)(F)OCC4CC4)n3c2)cnc1OCC(F)(F)F [Compound 1, 3-[cyclopropylmethoxy(difluoro)methyl]-6-[5-fluoro-6-(2,2,2-trifluoroethoxy)-3-pyridyl]-[1,2,4]triazolo[4,3-a]pyridine] |
| > 70 | C[C@H](Oc1ncc(-c2ccc3nnc(C(F)(F)OCC4CC4)n3c2)cc1F)C(F)(F)F [Compound 19, 3-[cyclopropylmethoxy(difluoro)methyl]-6-[5-fluoro-6-[(1S)-2,2,2-trifluoro-1-methyl-ethoxy]-3-pyridyl]-[1,2,4]triazolo[4,3-a]pyridine] |
| > 70 | CCOC(F)(F)c1nnc2cnc(-c3cnc(OCc4ccccc4)c(F)c3)cn12 [Compound 64, 6-(6-benzyloxy-5-fluoro-3-pyridyl)-3-[ethoxy(difluoro)methyl]-[1,2,4]triazolo[4,3-a]pyrazine] |
| > 70 | CC(C)OC(F)(F)c1nnc2ccc(-c3cnc(OCC(F)(F)F)c(F)c3)cn12 [Compound 4, 3-[difluoro(isopropoxy)methyl]-6-[5-fluoro-6-(2,2,2-trifluoroethoxy)-3-pyridyl]-[1,2,4]triazolo[4,3-a]pyridine] |
| > 70 | CCOCc1nnc2cnc(-c3cnc(OC(C)(C)C(F)(F)F)c(F)c3)cn12 [Compound 79, 3-(ethoxymethyl)-6-(5-fluoro-6-((1,1,1-trifluoro-2-methylpropan-2-yl)oxy)pyridin-3-yl)-[1,2,4]triazolo[4,3-a]pyrazine] |
| > 70 | C[C@H](Oc1ncc(-c2ccc3nnc(C(F)(F)OC4CC4)n3c2)cc1F)C(F)(F)F [Compound 37, 3-[cyclopropoxy(difluoro)methyl]-6-[5-fluoro-6-[(1S)-2,2,2-trifluoro-1-methyl-ethoxy]-3-pyridyl]-[1,2,4]triazolo[4,3-a]pyridine] |
| > 70 | CCOC(F)(F)c1nnc2ccc(-c3cnc(O[C@H](C)C(F)(F)F)c(F)c3)nn12 [Compound 42, 3-[ethoxy(difluoro)methyl]-6-[5-fluoro-6-[(1R)-2,2,2-trifluoro-1-methyl-ethoxy]-3-pyridyl]-[1,2,4]triazolo[4,3-b]pyridazine] |
| 30 to 70 | COC(F)(F)c1nnc2cnc(-c3cnc(O[C@H](C)C(F)(F)F)c(F)c3)c(C)n12 [Compound 60, 3-[difluoro(methoxy)methyl]-6-[5-fluoro-6-[(1R)-2,2,2-trifluoro-1-methyl-ethoxy]-3-pyridyl]-5-methyl-[1,2,4]triazolo[4,3-a]pyrazine] |
| > 70 | C[C@@H](Oc1ncc(-c2ccc3nnc(C(F)(F)OC4CC4)n3c2)cc1F)C(F)(F)F [Compound 36, 3-[cyclopropoxy(difluoro)methyl]-6-[5-fluoro-6-[(1R)-2,2,2-trifluoro-1-methyl-ethoxy]-3-pyridyl]-[1,2,4]triazolo[4,3-a]pyridine] |
| > 70 | COC(F)(F)c1nnc2ccc(-c3cnc(O[C@H](C)C(F)(F)F)c(F)c3)cn12 [Compound 8, 3-[difluoro(methoxy)methyl]-6-[5-fluoro-6-[(1R)-2,2,2-trifluoro-1-methyl-ethoxy]-3-pyridyl]-[1,2,4]triazolo[4,3-a]pyridine] |
| < 30 | COCc1nnc2cnc(-c3cnc(O[C@H](C)C(F)(F)F)c(F)c3)cn12 [Compound 31, 6-[5-fluoro-6-[(1R)-2,2,2-trifluoro-1-methyl-ethoxy]-3-pyridyl]-3-(methoxymethyl)-[1,2,4]triazolo[4,3-a]pyrazine] |
| > 70 | CCOC(F)(F)c1nnc2ccc(-c3cnc(O[C@H](C)C(F)(F)F)c(F)c3)cn12 [Compound 34, 3-[ethoxy(difluoro)methyl]-6-[5-fluoro-6-[(1R)-2,2,2-trifluoro-1-methyl-ethoxy]-3-pyridyl]-[1,2,4]triazolo[4,3-a]pyridine] |
| > 70 | COC(F)(F)c1nnc2ccc(-c3cnc(OCC(F)(F)F)c(F)c3)cn12 [Compound 30, 3-[difluoro(methoxy)methyl]-6-[5-fluoro-6-(2,2,2-trifluoroethoxy)-3-pyridyl]-[1,2,4]triazolo[4,3-a]pyridine] |
